Data reported in patent US20230174562A1, “RADIO-AND CHEMO-PROTECTIVE COMPOUNDS” (TONIX PHARMACEUTICALS, INC., priority 2020, published 2023).

What was measured:
[1] = administered orally; cited from earlier work
mice = assay: Phase 1 maximum tolerated dose (MTD) determination in mice; assay type: in vivo; conditions: male mice; oral gavage; 1,000 mg/kg
Method: (§1) Male mice were randomized and assessed in two phases: 1) for maximum tolerated doses (MTDs) of PrC-210, DzCH2SH, and 2Pip-2PrSH to determine dose levels for the efficacy study and 2) to evaluate the efficacy of the compounds when administered 60±5 minutes prior to exposure to total body irradiation (TBI) at an LD100/30 dose (990 cGy) (Tables 1 and 2).
(§2) For Phase 1 or 2, sterile water (vehicle), PrC-210, DzCH2SH, and 2Pip2PrSH were administered at 10 mL/kg calculated based on the most recent body weight via oral gavage. Animals were not fasted prior to administration of the compounds or vehicle. Mice in Phase 1 were administered the dose on Day 1 and mice in Phase 2 were administered the dose 60±5 minutes prior to TBI on Day 0.
(§3) All surviving animals were observed once daily for clinical signs (e.g., unusually low or high activity, lethargy, shivering, appearance of fur, bloody and water stool, and other symptoms of moribundity) at 1-2 hours post-irradiation and/or post-dose and once daily on non-dosing days until Day 4 (Phase 1) or Day 30 (Phase 2).
In Phase 1 (Table 1), all animals were normal when observed and all body weights were within normal range. The dose level of 1000 mg/kg was selected for Phase 2.

[2] = tested on: mice exposed to total body irradiation (TBI); assay: Phase 2 efficacy: survival of mice dosed before total body irradiation (TBI) at LD100/30; assay type: in vivo; conditions: for Survival: Day 30, 11 animals; for Survival / median survival time: male mice, 1000 mg/kg oral gavage 60±5 min before TBI 9.9 Gy (LD100/30); for body weight gain on Days 5 to 9: compared to the vehicle group (Group 13); for number of animals survived until scheduled sacrifice (Day 30) / number of mice found dead / number of mice moribund sacrificed: of 11 mice
Method: as §1, §2
Irradiation was administered once to the whole body. TBI of mice were performed using a 6 MV LINAC photon source (TrueBeam STx source). Animals were irradiated at a dose rate of up to 80 cGy/min to the midline of the animals. The source irradiated animals to 50% of the dose from anterior-posterior direction and […] from the posterior-anterior direction. Dose measurements were performed with a PTW 31010 0.1 cc Semiflex Ion chamber.
as §3
In Phase 2 (Table 2), survival curves of mice treated with vehicle, PrC-210, DzCH2SH or 2Pip-PrSH prior to TBI with 9.9 Gy were measured (FIG. 1). […] Five mice were moribund sacrificed, and 6 mice were found dead. Survival in the Group 13 animals was 0% and median survival time was 8 days. In mice administered with PrC-210 before TBI (Group 14), 4 animals survived until scheduled sacrifice (Day 30) while 7 mice were moribund sacrificed. […] In mice administered with DzCH2SH before TBI (Group 15), 3 animals survived until scheduled sacrifice (Day 30) while 7 mice were moribund sacrificed, and one mouse was found dead. […] Five mice were moribund sacrificed and six mice were found dead. Survival in the Group 16 mice was 0% and median survival time was 10 days.

[3] = Hygroscopicity on 10 minute exposure to the atmosphere; assay type: physicochemical; conditions: 10 minute exposure of a small amount to the atmosphere; diHCl salt
Method: In Reaction E: 48 ml of HCl in methanol, 6 eq. (1.25 M solution, Aldrich #17935) was added to a solution of compound V, 3.5 g, 0.010 moles dissolved in 10 ml dry methanol in a flask under argon and equipped for magnetic stirring and the reaction was stirred at room temperature for 24 hours. […] The solution was degassed by gently bubbling argon into the solution for 30 minutes. Concentration (rotary evaporator at ambient temperature) provided a crude oily residue which was triturated with hexane producing a white solid. The hexane was removed (via pipette suction) and replaced with dry THF (25 ml). After an additional 10 minutes of trituration, the THF was removed and replaced with dry hexane (25 ml). After an additional 10 minutes of trituration, the hexane was removed and the resulting white solid was dried in vacuo over P2O5 providing 1.95 grams of diHCl salt of PrC-210 (88%). […]
In Reaction P: Compound XVI, 2.2 grams, 0.0058 moles was placed in a round-bottom flask equipped for magnetic stirring followed by 15 mL anhydrous trifluoroacetic acid (CF3COOH, Aldrich #8.08260). The flask was fitted with a condenser and the solution was refluxed for 5 hours whereupon it was determined that the reaction was complete using TLC by observing the disappearance of starting material and the appearance of a highly polar product, which stained positive with ninhydrin. […]

[4] = 1000 mg/kg oral gavage before TBI 9.9 Gy
[5] = after 1000 mg/kg oral gavage and TBI 9.9 Gy, 11 per group
[6] = after 1000 mg/kg oral gavage and TBI 9.9 Gy

| Structure (SMILES) | toxicity at the highest tested dose (mice) | survival compared to vehicle (Group 13) by Log-rank (Mantel-Cox) test [2, 4] | Survival [2] | number of animals with cold to touch skin [2, 5] | number of animals with eye discharge [2, 5] | number of animals with hypoactivity [2, 5] | number of animals with swollen eye [2, 5] | number of mice with lethargy [2, 5] | number of mice with swollen head [2, 5] | body weight gain on Days 5 to 9 [2, 6] | median survival time [2] | number of animals survived until scheduled sacrifice (Day 30) [2, 4] | number of mice found dead [2, 4] | number of mice moribund sacrificed [2, 4] | also measured |
| --- | --- | --- | --- | --- | --- | --- | --- | --- | --- | --- | --- | --- | --- | --- | --- |
| NCCCNCCSP(=O)(O)O [Amifostine, amifostine] |  |  |  |  |  |  |  |  |  |  |  |  |  |  | efficacy as a radioprotector [1]: lacks efficacy |
| CC(C)(S)C1CNCCN1 (stereo not shown) [Compound 2Pip-2PrSH, 2-(piperazin-2-yl)propane-2-thiol] | did not produce any toxicity | statistically significantly higher | 0% | 4 | one | 5 | one | one | one | did not gain body weights | 10 days | no animals survived | six | Five | survival compared to vehicle (Group 13) by Chi-square test [2, 4]: not statistically significantly different |
| SCC1CNCCNC1 [Compound 22, (1,4-diazepan-6-yl)methanethiol] | did not produce any toxicity | statistically significantly higher | 27.3% | one | 2 | 5 | 2 | one | one | did not gain body weights | 11 days | 3 | one | 7 | mortality rate at 8-days post-irradiation ([2]; 1000 mg/kg oral gavage before TBI): efficacious effects; number of animals with eye cloudy [2, 5]: 2; number of animals with sunken eye [2, 5]: 1; number of mice with eye opacity [2, 5]: one; number of mice with labored breathing [2, 5]: one; survival of animals through 30 days post exposure ([2]; treated prior to total body irradiation (LD100/30)): increased survival; hygroscopicity [3]: did not show any signs of hygroscopicity |
